Data: patent US20090326053A1, “DIAGNOSTIC USES OF FOLLISTATIN-LIKE 1” (TRUSTEES OF BOSTON UNIVERSITY, priority 2008, published 2009)

Legend:
[1] = test system: neonatal rat ventricular myocytes (NRVMs); experiment: Nucleosome fragmentation ELISA in NRVMs; type: cell-based; details: inhibitor 10 μmol/L, 3 hours prior to H/R
Protocol: (§1) Myocyte cultures. Primary cultures of neonatal rat ventricular myocytes (NRVCs) were prepared and incubated in Dulbecco's modified Eagle's medium (DMEM) supplemented with 7% Fetal Calf Serum (FCS)^42. Eighteen to 24 hours after preparation, cells were transfected with adenoviral vector at a multiplicity of infection (MOI) of 50 in DMEM without serum for 16 hours and incubated in DMEM without serum for more than 12 hours. Hypoxic conditions were generated using a GasPak system (Becton Dickinson) as described previously. For hypoxia/reoxygenation studies, cells were exposed 12 hr hypoxia followed by 24 hr reoxygenation.
Detection of nucleosome fragmentation by ELISA. Nucleosome fragmentation was assessed by ELISA using Cell Death Detection kit (Roche) according to the manufacture's protocol. Cardiac myocytes were seeded in 96-well plates, transfected with adenoviral vector and exposed to H/R. In one assay, 8 wells are used for one group and assays are repeated three times. The extent of nucleosome fragmentation of each group was expressed as relative value in comparison with the value of control group (Ad-βgal transfected cells without H/R).

[2] = test system: neonatal rat ventricular myocytes (NRVMs); experiment: TUNEL staining of NRVMs after hypoxia/reoxygenation (H/R); type: cell-based; details: inhibitor 10 μmol/L, 3 hours prior to H/R; P<0.05
Protocol: as §1
TUNEL staining. TUNEL staining for cultured cardiac myocytes was performed using the In Situ Cell Death detection kit (Roche) as described previously^2 with some modifications. In brief, cells are fixed by 4% paraformaldehyde in PBS, permeabilized with 0.1% Triton X-100 and incubated with anti-sarcomeric actinin antibody for 60 min followed by incubation with Cy3-conjugated anti-mouse IgG antibody. Cells were then incubated with TUNEL staining solution for 1 hr according to the manufacture's protocol. DAPI was used for nuclear staining. […] TUNEL positive myocytes were counted in randomly selected three fields of the slide and the experiments were repeated three times in duplicates.

N#CC(=C(/N)Sc1ccccc1N)/C(C#N)=C(\N)Sc1ccccc1N [U0126]
inhibitory effect of Fstl1 on nucleosome fragmentation after treatment with inhibitor [1]: significantly attenuated
protective action of Ad-Fstl1 on TUNEL positive cells after pre-incubation with inhibitor [2]: partially attenuated
